Experimental data: a melting point compilation (Tetko et al.; mined from patent text by program, amines drawn as free bases though some values may be those of a salt)

melting point [°C] | Structure (SMILES)
72 to 82 | O=C1CCC(CCN2CC(N3CCOCC3)C2)(c2ccc(Cl)c(Cl)c2)CN1Cc1ccc(-c2ccccc2)cc1 (stereo not drawn)
129 | COC(=O)CNC(=O)c1nc(Cl)c2ccccc2c1O
205 | CCOC(=O)c1cc2cc(NC(=O)OCc3ccccc3)ccc2nn1
143 to 145 | Cn1ccnc1Sc1ccc(Cl)cc1[N+](=O)[O-]
91 | CSC(=S)C1(c2ccccn2)SCCCS1
156 | Cn1c(S(=O)(=O)CCCl)nnc1S(=O)(=O)CCCl
258 to 260 | CCCCC1Cc2c(c3cccnc3n(-c3ccc(F)cc3)c2=O)O1 (stereo not drawn)
99 to 102 | CNC(c1ccnc(F)c1)C(O)c1cccc(C(F)(F)F)c1 (stereo not drawn)
98 to 99 | Cc1ccc(C(=O)NCCc2ccccn2)c(Nc2ccc3[nH]ncc3c2)n1
116 to 118 | C[C@H](NC(=O)c1c(CN2CCNCC2)c(-c2ccccc2)nc2ccccc12)C1CCCCC1
261 to 262 | O=C(O)c1ccc(C(=C2SCCCS2)c2ccccc2)cc1
170 to 172 | Nc1ncnc2c1c(Br)cn2COC(O)CCO (stereo not drawn)
88 | Cc1ccc2cccc(OCc3c(Cl)ccc(S(=O)(=O)N4CCC[C@H]4C(=O)N(C)CCNC(=O)OC(C)(C)C)c3Cl)c2n1
150 to 151 | Cc1c(C)c(N2CCN(c3nccs3)CC2)c(C)c2c1OC(C)(C)C2
105 | O=C(C=C1OC(=O)c2ccccc21)c1ccccc1
108 to 110 | O=C(Nc1ccc(-c2ncon2)cc1)OCC(Cl)(Cl)Cl
132 to 134 | Cc1ccccc1CC(=O)c1c(O)c2cccnc2n(-c2cccc(OC(F)(F)F)c2)c1=O
135 to 136 | COc1cc2c(cc1OC)C(C(S)(C#N)c1ccc(Cl)cc1)=NCC2 (stereo not drawn)
102 to 104 | Cc1ccc(C(=O)Nc2cccc(C(F)(F)F)c2)cc1-c1ccc2ncsc2c1
184 to 185 | Cc1nc(-c2ccc(Cl)cc2)n(-c2ccc(S(C)(=O)=O)cc2)n1
115 | O=C(NC(=O)c1ccco1)C(=O)Oc1ccc([N+](=O)[O-])cc1
145 to 150 | Oc1ccc(-c2ccc(-c3ccc(O)cc3)c(-c3ccc(OCCN4CCCC4)cc3)n2)cc1
177 to 180 | C=CCOC(=O)c1c(Oc2nc(OC)cc(OC)n2)ccc2[nH]c(C)c(NC(C)=O)c12
> 250 | CNC1Oc2cc(Cl)cc(-c3ccc(Cl)cc3Cl)c2O1 (stereo not drawn)
176 to 177 | O=C(O)Cc1c(Oc2ccc3c(c2)OCO3)cccc1Oc1ccc2c(c1)OCO2

melting point [°C] | Structure (SMILES)
82 to 83 | C1=Cc2ccccc2SS1
188 to 189 | NS(=O)(=O)c1cc2cc(C=O)sc2s1
210 | CS(=O)c1c(C(=N)NN)nn(-c2c(Cl)cc(C(F)(F)F)cc2Cl)c1N (stereo not drawn)
70 to 73 | CCC(=O)NC1CCC(CNc2nc3c(s2)CCOc2ccccc2-3)CC1 (stereo not drawn)
212 to 214 | COc1ccc(NC(C)=C2C(=O)OC(=O)C(C(C)=O)=C2O)cc1
118 to 120 | CCSCCOC(=O)C(Br)=Cc1cc(-n2c(=O)cc(C(F)(F)F)n(C)c2=O)ccc1Cl
166 to 167 | CCCCOc1cc2c(Nc3cc(OC)c(Cl)cc3Cl)c(C#N)cnc2cc1OCCOC
83 to 85 | OC(CNCCCn1cnc2ccccc21)c1ccc(OCc2ccccc2)cc1 (stereo not drawn)
170 to 172 | NS(=O)c1ncnc2c1ccn2C1CC(O)C(CO)O1 (stereo not drawn)
114 to 116 | CC(C(=O)O)c1ccc(-c2ccc(Br)cc2Br)cc1 (stereo not drawn)
175 to 176 | O=c1[nH]c2cc(F)c(NCC3=CCCOC3)cc2o1
125 to 126 | CN1CCC(C(=NNc2ccc(F)cc2)c2ccccc2F)CC1
65 | Cc1ccc(OCC(=O)c2ccccc2)cc1
222 | ClC(Cl)=C1OC(C(Cl)(Cl)Cl)Oc2ccc(-c3nnn[nH]3)cc21 (stereo not drawn)
274 to 275 | O=c1nc(Nc2ccc(Br)cc2)sc2ncccc12
240 | NS(=O)(=O)c1cc2c(s1)SC(CC(=O)O)C(=O)N2 (stereo not drawn)
202 | O=C(Cc1ccccn1)c1nc2ccccc2[nH]1
104 to 106 | Cc1ccnc(C2C(=O)CC(C(C)C)CC2=O)c1 (stereo not drawn)
225 to 230 | CN(Cc1ccc(C(=O)Nc2ccc(Nc3cc(-c4cccc5c4oc4ccccc45)ncn3)cc2)cc1)C(=O)OC(C)(C)C
141 to 143 | O=C(O)[C@H](Cc1ccc(OCCc2coc(-c3ccccc3)n2)cc1)NS(=O)(=O)Cc1ccccc1
125 to 126 | COc1cccc(CNCc2ccc3nc(N)c4ncn(CC(C)C)c4c3c2)c1
92 to 94 | CC(=O)N1CCc2c(sc(C)c2C(=O)CN2CCC(c3noc4cc(F)ccc34)CC2)C1
194 to 196 | O=c1c(OCc2nnn[nH]2)coc2ccccc12
149 to 151 | COC(=O)C1=CCC(=C2CCc3nc4c(nc3C2=O)C(C)(C)CCC4(C)C)C=C1
100 to 105 | COC(=O)C(OC)c1ccc2oc(-c3ccc(Cl)cc3)nc2c1 (stereo not drawn)

melting point [°C] | Structure (SMILES)
130 to 131 | CCOC(=O)COc1cccc(-n2nc(-c3ccc(F)cc3)c3cccnc32)c1
275 to 277 | O=C(O)c1cccc(C(=O)Nc2cccc3cc(Br)cnc23)c1
126 to 128 | COCCOc1ccc(/C=C/C(=O)NS(=O)(=O)C(F)(F)F)c(Oc2ncc(C(F)(F)F)cc2Cl)c1
167 | O=C(Nc1cccc2c1C(=O)N(CCC(=O)N1CCN(c3ccncc3)CC1)C2=O)c1ccc(Cl)s1
106 to 108 | CCOC(=O)c1nn(-c2ccccc2Br)c(=O)c(C#N)c1C
217 to 218 | CS(=O)(=O)Nc1cc2occc(=O)c2cc1Oc1ccccc1
198 | CSC1(C)C(=O)N(C(C)=O)c2ccc(C3=NNC(=O)SC3)cc21 (stereo not drawn)
225 to 229 | C/C=C/c1ccc2nc(Cl)c(S(N)(=O)=O)n2n1
141 | Cc1ccc(CCCO)c(NCc2ccc3nc(NCCCN4CCOCC4)n(Cc4cccc(Br)n4)c3c2)c1
145 | Cn1c(=O)c(C(=O)NC2CCCCC2)c(O)c2ccccc21
108 to 109 | COCCOc1cc2ncnc(Cl)c2cc1OCCOC
148 to 149 | Oc1cnn(-c2ccc(Cl)cc2Cl)c1
229 to 230 | CCC(=O)Nc1cccc(-c2ccc(=O)[nH]n2)c1
199 to 202 | O=C(O)Cc1c(-c2ccco2)nn(-c2ccccc2)c1-c1ccco1
162 to 163 | CC(C)n1nc(-c2c(-c3ccccc3)nn3ccc(OCCN4CCCC4=O)cc23)ccc1=O
184 to 186 | CNc1nc(-c2cccc(-c3cncc(SC)c3)c2)c2cc(OC)c(OC)cc2n1
180 | COc1ccc(C=CC(=O)NCCc2ccc(I)c(S(N)(=O)=O)c2)c(OC)c1
108 | Cc1ccc(Br)cc1Cn1c(C(F)F)nn(C)c1=O
144 to 145 | CNC(=O)[C@H](C)C[C@H](O)[C@H](CC1CCCCC1)NC(=O)OC(C)(C)C
111 to 112 | CCCOc1c(OC)cc(C=O)cc1S(=O)(=O)CCO
126 to 127 | CCC(O)(c1ccc(O)cc1)c1ccc(C(F)(F)F)cc1 (stereo not drawn)
197 to 199 | Cc1cc(OC/C=C/c2ccccc2)c(C)c(C)c1NC=O
205 to 206 | O=c1c2cccc3c2n(c(=O)n1CCO)-c1cc(C(F)(F)F)ccc1S3=O (stereo not drawn)
204 to 205 | CC(=O)Nc1cc(N)cc([N+](=O)[O-])c1
129 to 131 | Cc1nc(-c2ccccc2)nc(-c2cccc([N+](=O)[O-])c2)c1C(=O)NCN1CCN(C)CC1

melting point [°C] | Structure (SMILES)
135 to 140 | O=C(c1cc(-c2ccccc2)ccn1)N(O)Cc1ccc(F)cc1
120 to 122 | NS(=O)(=O)c1ccc(-n2nc(CC(=O)O)cc2-c2ccc(Cl)cc2)cc1
94 to 96 | O=Cc1ccc(OCc2coc(-c3ccccc3)n2)cc1
92 | COC(=O)c1c[nH]c(Cl)c1
180 to 182 | CC(=O)Nc1nc2c(s1)C(=O)C(Br)CC2 (stereo not drawn)
239 to 241 | O=C(Nc1ccc2cc(CN3CCCC3)cnc2c1)N1CCC(c2ccc(F)cc2)CC1
146 to 147 | O=S(=O)(c1ccccc1Cl)N1CCNc2ncc(I)cc21
220 to 222 | O=[N+]([O-])c1ccc2nc(-c3ccc4c(c3)OCO4)ncc2c1
188 | c1cc2nc3c(n2nc1N1CCOCC1)CCCC3
79 to 81 | COc1ccc(CN2CCC(COc3ccc(F)cc3)CC2)cc1
104 to 106 | CCN(C=Nc1ccncc1O)CC
62 | C[Si](C)(C)C#Cc1ccc(Br)cc1
63 to 64 | Cc1cc(C#N)cc(C)c1OCCCCCc1cc(CO)no1
69 to 69.5 | CCCCc1nccc2c([N+](=O)[O-])cccc12
100 to 105 | COC(=O)c1ccc(S(C)(=O)=O)c(C2=NOC(C)(OC)C2)c1Cl (stereo not drawn)
143 to 151 | CCN1CCNC(=O)c2ccc(Nc3ncc(Cl)c(Nc4ccccc4-c4nccn4C)n3)cc21
64 to 67 | CC(C)c1cc(C(=O)O)cs1
240 to 249 | O=C(O)Cn1cc(C(=O)c2ccn3c2CSC3c2cccnc2)c2ccc(-c3ccc(F)cc3)cc21 (stereo not drawn)
202 to 206 | CCOC(=O)c1sc2c(ccc(=O)n2-c2ccccc2)c1Br
262 | C#CCOc1cccc(-c2nc3ncccc3[nH]2)c1OC
159 | O=C(c1ccccc1)c1ccc2sc(NCCO)nc2c1
120 | Cc1ccc2c(c1)[nH]c(=O)n2CCCl
116 to 118 | COC(=O)/C=C/c1cc(-c2ccc(C)cc2)cs1

Structure (SMILES) | melting point [°C]
CC(=O)OC1C(N2CCCCC2)CC2C3CCC4CCC(=O)CC4(C)C3CCC21C (stereo not drawn) | 165 to 167
CC(C)n1cc(C(=O)O)c2ccc(C(F)(F)F)cc21 | 177 to 178
CS(=O)(=O)Nc1cc(Cl)c(C#N)cc1Sc1ccc(F)cc1F | 159 to 162
COc1cc(/C=C/c2cc(OC)c(OC)c(OC)c2)cc(OC)c1OC | 220
N#Cc1ccc(N2C(=O)N(CCF)C3(CCOCC3)C2=O)cc1C(F)(F)F | 192 to 193
